Assay results as given in patent US20260015364A1, “PIPERAZINE BRIDGE-SUBSTITUTED HETEROCYCLIC PYRIMIDINE COMPOUND” (MEDSHINE DISCOVERY INC., priority 2022, published 2026).

Key:
Type in all cases: cell-based
[1] = system: PANC04.03 human pancreatic cancer cells with KRAS^G12D mutation; assay: PANC04.03 3D CTG experiment (anti-proliferation); settings: Panc 04.03, 168 h, 7 days incubation
From the text: This experiment aims to verify the inhibitory effect of the compounds of the present disclosure on the proliferation of PANC04.03 human pancreatic cancer cells with KRAS^G12D mutation.
(§1) Cell line PANC04.03 and RPMI-1640 medium were purchased from GIBCO, FBS was purchased from Hyclone, and human insulin was purchased from Yeasen. The 96-well plate was purchased from Ultra Low Cluster, CellTiter-Glo® 3D Cell Viability Assay reagents (chemiluminescent 3D cell viability assay reagents) were purchased from Promega, and 2104 En Vision plate reader was purchased from PerkinElmer.
(§2) PANC04.03 cells were cultured in an incubator at 37° C. with 5% CO2 under the conditions of RPMI-1640+15% FBS+5 µg/mL human insulin. Regular passaging was performed, and cells in the logarithmic growth phase were selected for plating. PANC04.03 cells were seeded in a 96-well U-bottom cell culture plate, and each well of 135 μL cell suspension contained 2000 PANC04.03 cells. The culture plate was cultured overnight in a 37° C., 5% CO2 incubator with 100% relative humidity. The test compound was diluted 5-fold to the eighth concentration using a pipette, ranging from 200 μM to 2.56 nM, and tested in duplicate. 78 μL of culture medium per well was added to an intermediate plate. […] A multimode microplate reader was used for reading. […]

[2] = system: GP2D human colon cancer cells with KRAS^G12D mutation; assay: GP2D 3D CTG experiment (anti-proliferation); settings: 120 h, 5 days incubation
From the text: This experiment aims to verify the inhibitory effect of the compounds of the present disclosure on the proliferation of GP2D human colon cancer cells with KRAS^G12D mutation.
as §1, with “GP2D” for “PANC04.03”, “DMEM” for “RPMI-1640”, “L-glutamine” for “human insulin”, “Invitrogen.” for “Yeasen.”, “Cluster.” for “Cluster,”
as §2, with “GP2D” for “PANC04.03”, “DMEM+10% FBS+2 mM L-glutamine.” for “RPMI-1640+15% FBS+5 µg/mL human insulin.”, “6000 GP2D” for “2000 PANC04.03”

[3] = system: AsPC-1 human pancreatic cancer cells with KRAS^G12D mutation; assay: AsPC-1 3D CTG experiment (anti-proliferation); settings: ASPC1, 168 h, 7 days incubation
From the text: This experiment aims to verify the inhibitory effect of the compounds of the present disclosure on the proliferation of AsPC-1 human pancreatic cancer cells with KRAS^G12D mutation.
as §1, with “AsPC-1” for “PANC04.03”, “GIBCO, and” for “GIBCO,”, “Hyclone.” for “Hyclone, and human insulin was purchased from Yeasen.”, “EnVision” for “En Vision”
as §2, with “AsPC-1” for “PANC04.03”, “CO2” for “CO2 under”, “RPMI-1640+10% FBS.” for “RPMI-1640+15% FBS+5 µg/mL human insulin.”, “500 AsPC-1” for “2000 PANC04.03”, “plate. Subsequently, 2 μL of the gradient diluted compound per well was transferred to the corresponding wells of the intermediate plate and mixed well.” for “plate.”

`C#Cc1c(F)ccc2cc(N)cc(-c3ncc4c(N5CC6CCC(C5)N6)nc(OC[C@@]56CC(=C)CN5C[C@@H]5C[C@@H]56)nc4c3F)c12` (single isomer, unassigned) [Compound 3] showed an IC50 [1] of 34.2 nM, an IC50 [2] of 0.54 nM and an IC50 [3] of 5.74 nM.
